US20250296960A1, “PEPTIDE COMPOSITIONS AND METHODS OF USE THEREOF” (priority 2022, published 2025)
Numbered stars: 1 amine (or outer) side, 2 acyl side, 3 side chain; on linkers, the order of the positions; unused ones are H or OH. Square brackets hold non-standard residues; d marks the D form. Side chains are listed from the residue outwards. Peptide text beside a SMILES is read from it. * marks the point of attachment. Biotin = O=C1N[C@H]2[C@H](CS[C@H]2CCCCC(=O)*)N1; C18 diacid = O=C(O)CCCCCCCCCCCCCCCCC(=O)*; γGlu = O=C(O)[C@H](CCC(=O)[*:2])N[*:1]; AEEA = NCCOCCOCC(=O)O; Aib = CC(C)(N)C(=O)O

Experiment: Intestinal absorption / PK after intraduodenal administration of oral formulation in rats, serum LC-MS/MS
Details: rat, in vivo, 300 nmol/kg
Procedure: This study was conducted to evaluate the intestinal absorption of peptides following enteral administration of oral pharmaceutical formulations. The pharmaceutical formulation was administered in a form of suspensions by intraduodenal (ID) injection in rats. SEQ ID_87, 89 and 90 was accurately weighed and dissolved in 10 mM PBS containing polysorbate 80 (pH 7.4, vehicle I). The mixture was vortexed for 5 min to get a clear solution. Then, 2.5 mL of vehicle was added to the mixture and vortexed for 30 min to get homogenous opaque suspension. The composition of Vehicle II was sodium chenodeoxycholate, and propyl gallate in polysorbate 80 in PBS. The animals were not fasted prior to dosing. 0.2˜ 0.4 mL of whole blood was taken from vein at each time point (0, 0.167, 0.5, 1, 2, 4, 8, 24, and 48 hrs after IV or ID administration). The collected whole blood was incubated at room temperature for 20 min and tubes were centrifugated at 13,000 rpm for 10 min at 4° C. The resulting serum 0.1˜ 0.2 mL was transferred into the tube and stored at −70° C. until analysis. The concentrations of peptides in serum were determined by LC-MS/MS analysis. PK parameters were analyzed by non-compartmental analysis using Phoenix WinNonlin 5.0.1. software (Pharsight Corporation, Mountain View, CA, USA).

CSCC[C@H](NC(=O)[C@H](Cc1ccc(O)cc1)NC(=O)[C@H](CC(=O)O)NC(=O)[C@H](CC(C)C)NC(=O)[C@H](CC(C)C)NC(=O)[C@H](CCCCNC(=O)COCCOCCNC(=O)COCCOCCNC(=O)CC[C@H](NC(=O)CCCCCCCCCCCCCCCCC(=O)O)C(=O)O)NC(=O)[C@H](CO)NC(=O)[C@H](Cc1ccc(O)cc1)NC(=O)[C@H](CC(=O)O)NC(=O)[C@H](CO)NC(=O)[C@@H](NC(=O)[C@H](Cc1ccccc1)NC(=O)[C@@H](NC(=O)CNC(=O)[C@H](CCC(N)=O)NC(=O)C(C)(C)NC(=O)[C@@H](N)Cc1ccc(O)cc1)[C@@H](C)O)[C@@H](C)O)C(=O)N[C@@H](CCSC)C(=O)N[C@@H](CCC(N)=O)C(=O)N[C@@H](CCCNC(=N)N)C(=O)N[C@@H](CC(=O)O)C(=O)N[C@@H](Cc1ccccc1)C(=O)N[C@H](C(=O)N[C@@H](CCC(N)=O)C(=O)N[C@@H](Cc1c[nH]c2ccccc12)C(=O)N[C@@H](CC(C)C)C(=O)N[C@@H](CC(C)C)C(=O)N[C@@H](CCC(=O)O)C(=O)NCC(=O)NCC(=O)N1CCC[C@H]1C(=O)N[C@@H](CO)C(=O)N[C@@H](CO)C(=O)NCC(=O)N[C@@H](C)C(=O)N1CCC[C@H]1C(=O)N1CCC[C@H]1C(=O)N1CCC[C@H]1C(=O)N[C@@H](CO)C(=O)N[C@@H](CCCCNC(=O)CCCC[C@@H]1SC[C@@H]2NC(=O)N[C@@H]21)C(N)=O)C(C)C [SEQ ID_90] (H-Y[Aib]QGTFTSDYSK([AEEA-AEEA-γGlu-C18 diacid])LLDYMMQRDFVQWLLEGGPSSGAPPPSK(Biotin)-NH2; N-terminus and C-terminus assumed)
AUC(0-inf): 2490 ng·h/mL | Cmax: 282 ± 88.5 ng/mL | MRT inf: 11.8 ± 1.48 h | Tmax: 0.3 ± 0.18 h | half-life: 8.37 ± 0.92 h
